# Source: patent US20230009608A1, “GRK2 INHIBITORS AND USES THEREOF” (Cygnal Therapeutics, Inc., priority 2020, published 2023)
# What was measured:
# [1] = test system: PAXF1657 control empty vector cell line; experiment: 7-day proliferation assay, PAXF1657 control empty vector cell line (Example 9); assay type: cell-based; details: 168 h; Cell Line: PAXF1657 empty vector (EV) cell line; 7-day; read-out: C: 7-day proliferation assay: IC50 GeoMean
# Experimental: In order to identify compounds specific for GRK2, we generated two isogenic cell line pairs of the pancreatic cancer cell line PAXF1657, a pair of cells stably overexpressing GRK2 cDNA or the control empty vector and a cell line pair of PAXF1657 GRK2 knockout clonal cells versus non-targeting control clonal cells.
# Proliferation Assay: Cellular anti-proliferative activity of compounds was assessed by using the pancreatic cancer cell line, PAXF1657, stably overexpressing GRK2 cDNA or the control empty vector, as well as the parental urinary bladder cancer cell line, 5637. In addition, we also took advantage of GRK2 knockout cell lines that were generated via CRISPR. Cell lines were seeded into tissue culture treated, white-walled, 96-well plates at a density of 500 cells/well in RPMI1640 media supplemented with 10% H.I. FBS and penicillin/streptomycin. Plates were incubated overnight at 37° C., 5% CO2 to allow cells to adhere to the wells. GRK2 inhibitors were added to the cells using a 10-point dilution series with a final concentration ranging from 30 μM-0.0002 μM in 0.3% DMSO. At the time of compound addition, a set of plates, that were not treated with compounds, were collected and cell viability was measured using CellTiter-Glo (Promega). CellTiter-Glo reagent was added to the designed plates and luminescence was measuring using a Biotek Synergy plate reader. The compound treated cells were incubated for 3 days at 37° C., 5% CO2. The media was then aspirated from each well and replaced with fresh media containing GRK2 inhibitors. The compound treated cells were then incubated for an additional 4 days at 37° C., 5% CO2. Cell viability was assessed and at end of the 7-day compound treatment by CellTiterGlo.
# [2] = molecular target: T1, GRK2 (Homo sapiens, UniProt P25098); experiment: ADPGlo GRK2 Inhibition Assay (Example 8); assay type: biochemical; details: ADPGlo GRK2 enzyme assay; read-out: A: Enzymatic GRK2: IC50 (nM) (Example 8)
# T1 construct: purchased SignalChem A14-10G
# T1 sequence (P25098 1-689): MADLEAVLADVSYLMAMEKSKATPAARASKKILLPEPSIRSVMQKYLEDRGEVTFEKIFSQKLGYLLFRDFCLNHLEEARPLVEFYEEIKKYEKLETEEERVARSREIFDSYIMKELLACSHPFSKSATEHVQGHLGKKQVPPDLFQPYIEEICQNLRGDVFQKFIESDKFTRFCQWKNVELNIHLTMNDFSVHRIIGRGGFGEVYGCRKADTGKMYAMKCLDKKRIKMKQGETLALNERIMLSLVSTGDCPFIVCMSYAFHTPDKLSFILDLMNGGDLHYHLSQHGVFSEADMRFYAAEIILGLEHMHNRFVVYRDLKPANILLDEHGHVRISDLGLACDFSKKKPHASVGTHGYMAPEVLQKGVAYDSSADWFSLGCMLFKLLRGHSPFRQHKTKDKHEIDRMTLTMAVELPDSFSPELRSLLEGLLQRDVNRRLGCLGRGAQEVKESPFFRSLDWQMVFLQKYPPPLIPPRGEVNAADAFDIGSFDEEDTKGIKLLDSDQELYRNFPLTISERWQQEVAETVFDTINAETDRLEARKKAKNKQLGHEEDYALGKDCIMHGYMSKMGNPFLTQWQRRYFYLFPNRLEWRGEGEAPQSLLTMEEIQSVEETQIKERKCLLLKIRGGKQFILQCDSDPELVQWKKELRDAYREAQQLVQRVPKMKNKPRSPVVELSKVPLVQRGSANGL
# Experimental: HTS was performed using 1 μM compound.
# Compounds were dissolved in 100% DMSO, serially diluted tree-fold from 100 μM concentration to 46 nM and transferred (50 nL) into assay ready plate.
# Materials: GRK2 was purchased from SignalChem (Cat #A14-10G, Lot #X^645-3). Substrate GRKtide was from SignalChem (Cat #G46-58, Lot #R339-6). ADP-Glo Kinase Assay from Promega (Cat #V9102). Assay buffer consisted of 25 mMv HEPES (pH7.5), 10 mMv MgCl2, 0.01% Tween-20, 1 mM DDT. 384-well white plates were from Greiner […] (Item #784075).
# HTS protocol: Take 384 well plate with 50 nL of compound in columns 3-22/DMSO solution 1-2,23-24. Add 2.5 μL assay buffer to columns 23 and 24 using Thermo Scientific Multidrop Combi Dispenser. Add 2.5 μL of 2× enzyme solution (15 nM in 1× assay buffer) using Thermo Scientific Multidrop Combi Reagent Dispenser to all columns except of 23 and 24. Incubate for 15 minutes. Fill plate with 2.5 μL of 2× substrate mix (20 μM ATP and 0.6 mg/nt GRKtide in Ix assay buffer) using Thermo Scientific Multidrop Combi Reagent Dispenser. Spin 15 seconds at 1000 rpm and incubate for 180 min at room temperature. Add 5 μL ADP-Glo reagent to all the wells. Spin 15 seconds at 1000 rpm and incubate for 40 min at room temperature. Add 10 μL Detection solution to all the wells. Incubate for 30 min at room temperature. Read plate in Luminescent modeon BMG PheraStar FSX (gain=3600).
# Data Analysis: Data were analyzed in GraphPad Prism 8.0.2. Each HTS plate contains compounds in columns 3-22, controls (enzyme, no compound) in columns 1 and 2, and blanks (no enzyme) in columns 23 and 24. HTS percent inhibition was calculated for each compound from the signal in luminescence units and the mean of the plate controls and the mean of the plate blanks using the following equation: % Inhibition=100*(1−((signal-blank mean)/(control mean-blank mean))). At the final stage of data processing, we obtain dose-response curves, tables and SDF-files with the results of screening for each substance.
IC50 [2] [nM],SMILES,IC50 [1] [nM]
–,Cn1c(CNc2cccc(C(=O)NCc3cc(C(F)(F)F)ccn3)c2)nnc1-c1ccncn1,> 10000
–,C[C@H](NC(=O)c1cccc(NCc2nnc(-c3ccncn3)n2C)c1)c1cncc(F)c1,2300
–,Cn1c(CNc2cccc(C(=O)NCc3cn[nH]c3)c2)nnc1-c1ccncn1,> 10000
–,COc1cccc(CNC(=O)c2cccc(NCc3nnc(-c4ccncn4)n3C)c2)c1OC,> 10000
–,Cn1c(CNc2cccc(C(=O)NCc3ccnc(C(F)(F)F)c3)c2)nnc1-c1ccncn1,995
–,COc1ccnc(CNC(=O)c2cccc(NCc3nnc(-c4ccncn4)n3C)c2)c1,3150
–,Cc1ccnc(CNC(=O)c2cccc(NCc3nnc(-c4ccncn4)n3C)c2)n1,> 10000
–,Cn1c(CNc2cccc(C(=O)NCc3ncccn3)c2)nnc1-c1ccncn1,> 10000
–,C[C@H](NC(=O)c1cccc(NCc2nnc(-c3ccncc3)[nH]2)c1)c1ccncc1,> 10000
–,CO[C@H]1C[C@H](CNC(=O)c2cccc(NCc3nnc(-c4ccncc4)[nH]3)c2)C1,> 10000
–,Cn1c(CNC(=O)c2cccc(NCc3nnc(-c4ccncc4)[nH]3)c2)nnc1C1CCC1,> 10000
–,O=C(NCC1(F)CCC1)c1cccc(NCc2nnc(-c3ccncc3)[nH]2)c1,3220
–,CC1(CNC(=O)c2cccc(NCc3nnc(-c4ccncc4)[nH]3)c2)CCCOC1 (stereo not drawn),> 10000
–,COc1cnccc1C(C)NC(=O)c1cccc(NCc2nnc(-c3ccncc3)[nH]2)c1 (stereo not drawn),> 10000
–,CCn1nccc1C(C)NC(=O)c1cccc(NCc2nnc(-c3ccncc3)[nH]2)c1 (stereo not drawn),> 10000
–,CN1CCC(CNC(=O)c2cccc(NCc3nnc(-c4ccncc4)[nH]3)c2)C1=O (stereo not drawn),> 10000
–,O=C(NCc1nnc2n1CCCC2C(F)(F)F)c1cccc(NCc2nnc(-c3ccncc3)[nH]2)c1 (stereo not drawn),> 10000
–,O=C(NCC1CC1(F)F)c1cccc(NCc2nnc(-c3ccncc3)[nH]2)c1 (stereo not drawn),> 10000
–,COC[C@H](NC(=O)c1cccc(NCc2nnc(-c3ccncc3)[nH]2)c1)c1cccnc1,> 10000
–,C[C@H](NC(=O)c1cccc(NCc2nnc(-c3ccncc3)[nH]2)c1)c1ccnn1C,9810

IC50 [2] [nM],SMILES,IC50 [1] [nM]
–,Cc1nn(C)c(C)c1CNC(=O)c1cccc(NCc2nnc(-c3ccncc3)[nH]2)c1,> 10000
–,O=C(NCc1cccnc1-n1ccnc1)c1cccc(NCc2nnc(-c3ccncc3)[nH]2)c1,> 10000
–,Cc1nnc(CNC(=O)c2cccc(NCc3nnc(-c4ccncc4)[nH]3)c2)n1C,> 10000
–,C[C@H](NC(=O)c1cccc(NCc2nnc(-c3ccncc3)[nH]2)c1)c1cnnn1C,> 10000
–,COCCn1nc(C)c(CNC(=O)c2cccc(NCc3nnc(-c4ccncc4)[nH]3)c2)c1C,> 10000
–,Cc1n[nH]cc1CNC(=O)c1cccc(NCc2nnc(-c3ccncc3)[nH]2)c1,> 10000
–,Cn1cnnc1CNC(=O)c1cccc(NCc2nnc(-c3ccncc3)[nH]2)c1,> 10000
–,Cn1ncnc1CNC(=O)c1cccc(NCc2nnc(-c3ccncc3)[nH]2)c1,> 10000
–,CCn1cnnc1CNC(=O)c1cccc(NCc2nnc(-c3ccncc3)[nH]2)c1,> 10000
–,CCn1nccc1CNC(=O)c1cccc(NCc2nnc(-c3ccncc3)[nH]2)c1,739
–,CCn1ncnc1CNC(=O)c1cccc(NCc2nnc(-c3ccncc3)[nH]2)c1,> 10000
–,O=C(NCc1ccncn1)c1cccc(NCc2nnc(-c3ccncc3)[nH]2)c1,> 10000
–,O=C(NCc1cccnn1)c1cccc(NCc2nnc(-c3ccncc3)[nH]2)c1,> 10000
–,COCCn1cc(C(C)NC(=O)c2cccc(NCc3nnc(-c4ccncc4)[nH]3)c2)cn1 (stereo not drawn),> 10000
–,CC(NC(=O)c1cccc(NCc2nnc(-c3ccncc3)[nH]2)c1)c1ncnn1C (stereo not drawn),> 10000
–,CN(C)CCC(NC(=O)c1cccc(NCc2nnc(-c3ccncc3)[nH]2)c1)c1ccccc1 (stereo not drawn),> 10000
–,CC(NC(=O)c1cccc(NCc2nnc(-c3ccncc3)[nH]2)c1)c1cn[nH]c1 (stereo not drawn),323
–,O=C(NCc1nnc2n1CCC(C(F)(F)F)C2)c1cccc(NCc2nnc(-c3ccncc3)[nH]2)c1 (stereo not drawn),89300
–,CC(NC(=O)c1cccc(NCc2nnc(-c3ccncc3)[nH]2)c1)c1ncn(C)n1 (stereo not drawn),> 10000
–,CN(C)CCC(NC(=O)c1cccc(NCc2nnc(-c3ccncc3)[nH]2)c1)c1cccnc1 (stereo not drawn),> 10000

IC50 [2] [nM],SMILES,IC50 [1] [nM]
–,CC(NC(=O)c1cccc(NCc2nnc(-c3ccncc3)[nH]2)c1)c1nncn1C (stereo not drawn),> 10000
–,CCOc1ccccc1CNC(=O)c1cccc(NCc2nnc(-c3ccncc3)[nH]2)c1,> 30000
81.6,COc1cccc([C@@H](C)NC(=O)c2cccc(NCc3nnc(-c4ccncc4)[nH]3)c2)c1,–
85,CN1CC[C@H](NC(=O)c2cccc(NCc3nnc(-c4ccncn4)n3C)c2)c2ccccc21,–
59.1,COC1COc2ccccc2C1NC(=O)c1cccc(NCc2nnc(-c3ccncn3)n2C)c1 (stereo not drawn),–
62.5,CNS(=O)(=O)c1ccccc1CNC(=O)c1cccc(NCc2nnc(-c3ccncn3)n2C)c1,–
68.9,CNS(=O)(=O)Cc1ccccc1CNC(=O)c1cccc(NCc2nnc(-c3ccncn3)n2C)c1,–
68,CC(NC(=O)c1cccc(NCc2nnc(-c3ccncn3)n2C)c1)c1ccccc1NS(C)(=O)=O (stereo not drawn),–
184,CN1CCN(c2ccccc2CNC(=O)c2cccc(NCc3nnc(-c4ccncn4)n3C)c2)CC1,–
104,Cn1c(CNc2cccc(C(=O)NCc3cc(F)ccc3N3CCOCC3)c2)nnc1-c1ccncn1,–
412,Cc1ccc(CNC(=O)c2cccc(NCc3nnc(-c4ccncn4)n3C)c2)c(N2CCOCC2)c1,–
52.8,Cn1c(CNc2cccc(C(=O)NCc3ccccc3S(=O)(=O)N3CCOCC3)c2)nnc1-c1ccncn1,–
50.5,Cn1c(CNc2cccc(C(=O)NCc3ccccc3S(=O)(=O)N3CCCCC3)c2)nnc1-c1ccncn1,–
107,Cn1c(CNc2cccc(C(=O)NCc3ccccc3CS(=O)(=O)N3CCCC3)c2)nnc1-c1ccncn1,–
423,Cn1c(CNc2cccc(C(=O)N[C@]3(c4ccccc4F)C[C@H](O)C3)c2)nnc1-c1ccncn1,–
132,Cc1nnc(O)c(C(C)NC(=O)c2cccc(NCc3nnc(-c4ccncn4)n3C)c2)c1C (stereo not drawn),–
108,Cc1ncc2c(n1)CCCC2NC(=O)c1cccc(NCc2nnc(-c3ccncn3)n2C)c1 (stereo not drawn),–
192,Cn1c(CNc2cccc(C(=O)NCc3cc4c(nc3O)CCCC4)c2)nnc1-c1ccncn1,–
318,Cn1c(CNc2cccc(C(=O)NCc3ncccc3-n3cccn3)c2)nnc1-c1ccncn1,–
–,Cc1csc(CNC(=O)c2cccc(NCc3nnc(-c4ccncn4)n3C)c2)n1 [drawing 407],862
